From patent publication US20230146455A1, “TREATMENT OF INFLAMMATORY DISEASES WITH PEPTIDES AND PHARMACEUTICAL COMPOSITIONS” (Yuyu Pharma, Inc., priority 2020, published 2023)
Values joined by “and” are separate entries in the source; they are usually repeats but may differ in a detail not shown here. Equal entries are not always repeated. Where a SMILES comes first, the peptide text is derived from it. [ ]: non-standard residue; d: D form. Hyp = O=C(O)[C@@H]1C[C@@H](O)CN1

System: CCL4/MIP-1 beta
Assay: Example 9 Luminex, LPS hPBMCs: CCL4/MIP-1 beta
Assay type: cell-based, human
Conditions: for MFI (Bead name: CCL4/MIP-1 beta): dilution 10
Description: Treatment Human PBMCs were pretreated with YY-101, YDE-011 and YDE-043 or reference compound; Xiidra® at various concentration (ranging from 1 nM to 100 uM) for 2 h before stimulation. An equal volume of 0.5% DMSO was used as a vehicle control. Then, the cells were treated with LPS at 5 ug/ml. The supernatants from treated cells were harvested at 24 h and placed in a 96 well for Luminex cytokine & chemokine profiling using a Luminex 200 multiplex assay (Luminex; R&D system, USA).
The main study arm with triplicate wells per group in a 24-well plate: • 1. Blank • 2. PBMC: 0.5% DMSO • 3. PBMC+LPS (5 ug/ml) • 4. PBMC+YY-101 100 uM • 5. PBMC+YY-101 10 uM • 6. PBMC+YY-101 1 uM • 7. PBMC+YY-101 0.1 uM • 8. PBMC+YY-101 0.01 uM • 9. PBMC+LPS (5 ug/ml)+Xiidra®100 uM • 10. PBMC+LPS (5 ug/ml)+Xiidra® 10 uM • 11. PBMC+LPS (5 ug/ml)+Xiidra® 1 uM • 12. PBMC+LPS (5 ug/ml)+Xiidra®0.1 uM • 13. PBMC+LPS (5 ug/ml)+Xiidra®0.01 uM • 14. PBMC+LPS (5 ug/ml)+Xiidra®0.001 uM • 15. PBMC+LPS (5 ug/ml)+YY-101 100 uM • 16. PBMC+LPS (5 ug/ml)+YY-101 10 uM • 17. PBMC+LPS (5 ug/ml)+YY-101 1 uM • 18. PBMC+LPS (5 ug/ml)+YY-101 0.1 uM • 19. PBMC+LPS (5 ug/ml)+YY-101 0.01 uM • 20. PBMC+LPS (5 ug/ml)+YY-101 0.001 uM • 21. PBMC+LPS (5 ug/ml)+YDE-011 100 uM • 22. PBMC+LPS (5 ug/ml)+YDE-011 10 uM • 23. PBMC+LPS (5 ug/ml)+YDE-011 1 uM • 24. PBMC+LPS (5 ug/ml)+YDE-011 0.1 uM • 25. PBMC+LPS (5 ug/ml)+YDE-011 0.01 uM • 26. PBMC+LPS (5 ug/ml)+YDE-011 0.001 uM • 27. PBMC+LPS (5 ug/ml)+YDE-043 100 uM • 28. PBMC+LPS (5 ug/ml)+YDE-043 10 uM • 29. PBMC+LPS (5 ug/ml)+YDE-043 1 uM • 30. PBMC+LPS (5 ug/ml)+YDE-043 0.1 uM • 31. PBMC+LPS (5 ug/ml)+YDE-043 0.01 uM • 32. PBMC+LPS (5 ug/ml)+YDE-043 0.001 uM
Multiplex assay was used to measure 30 cytokines and chemokines. The 1:2, 1:10 and 1:200 diluted cell supernatant and serial dilution of the standard were dispensed into a 96 well plate at 50 ul/well. Then, the pre-mixed cocktail of antibody-coated magnetic beads was dispensed at 50 ul/well and incubated at room temperature for 2 h in a horizontal orbital microplate shaker at 800±500 rpm. The beads were washed using a magnetic device to prevent loss. The biotin-antibody was dispensed in 50 ul of each well and incubated at room temperature for 1 h in a shaker at 800±500 rpm. After washing, streptavidin-PE was added at 50 ul/well and incubated at room temperature for 30 min in a shaker under the same conditions. Finally, after washing, wash buffer (100 ul/well) was added to the plate and incubated in a shaker for 2 min. The Luminex™ 200 setting were set according to the manufacturer's protocol. The data was calculated with a standard five-parameter logistic nonlinear regression analysis of the data (xPonent software 4.2, USA). The levels of cytokine/chemokine are normalized to the live cell counts (1×10^5 cells/mL) and presented as concentrations per mL (pg/mL or ng/mL).

[1] = PBMC + LPS(5 ug/ml), test article 0.001 uM, Mean
[2] = PBMC + LPS(5 ug/ml), test article 0.001 uM, single replicates
[3] = PBMC + LPS(5 ug/ml), test article 0.01 uM, Mean
[4] = PBMC + LPS(5 ug/ml), test article 0.01 uM, single replicates
[5] = PBMC + LPS(5 ug/ml), test article 0.1 uM, Mean
[6] = PBMC + LPS(5 ug/ml), test article 0.1 uM, single replicates
[7] = PBMC + LPS(5 ug/ml), test article 1 uM, Mean
[8] = PBMC + LPS(5 ug/ml), test article 1 uM, single replicates
[9] = PBMC + LPS(5 ug/ml), test article 10 uM, Mean
[10] = PBMC + LPS(5 ug/ml), test article 10 uM, single replicates
[11] = PBMC + LPS(5 ug/ml), test article 100 uM, Mean
[12] = PBMC + LPS(5 ug/ml), test article 100 uM, single replicates
[13] = PBMC without LPS, test article 0.01 uM, Mean
[14] = PBMC without LPS, test article 0.01 uM, single replicates
[15] = PBMC without LPS, test article 0.1 uM, Mean
[16] = PBMC without LPS, test article 0.1 uM, single replicates
[17] = PBMC without LPS, test article 1 uM, Mean
[18] = PBMC without LPS, test article 1 uM, single replicates
[19] = PBMC without LPS, test article 10 uM, Mean
[20] = PBMC without LPS, test article 10 uM, single replicates
[21] = PBMC without LPS, test article 100 uM, Mean
[22] = PBMC without LPS, test article 100 uM, single replicates

SMILES: CC(C)C[C@H](NC(=O)CNC(=O)[C@H](CC(=O)O)NC(=O)[C@H](CCC(N)=O)NC(=O)CNC(=O)[C@@H]1C[C@@H](O)CN1)C(=O)N[C@@H](C)C(=O)NCC(=O)N1CCC[C@H]1C(=O)N[C@@H](CCCCN)C(=O)O [YY-101] (H-[Hyp]GQDGLAGPK-OH; N-terminus and C-terminus assumed)
- LPS-induced CCL4 (in words) (LPS 5 ug/mL 24 hrs, 100 uM to 1 nM): significantly reduced
- Concentration (CCL4/MIP-1 beta) [1]: 13975.6 pg/mL
- conc/live cell (CCL4/MIP-1 beta) [1]: 2183.3 pg/10^5
- MFI (Bead name: CCL4/MIP-1 beta) [1]: 515.8
- MFI (Bead name: CCL4/MIP-1 beta) [2]: 551.5 and 527.0 and 469.0
- Concentration (CCL4/MIP-1 beta) [2]: 14562.9 pg/mL and 14163.0 pg/mL and 13200.9 pg/mL
- conc/live cell (CCL4/MIP-1 beta) [2]: 2554.9 pg/10^5 and 1994.8 pg/10^5 and 2000.1 pg/10^5
- Concentration (CCL4/MIP-1 beta) [3]: 15170.0 pg/mL
- conc/live cell (CCL4/MIP-1 beta) [3]: 2461.1 pg/10^5
- MFI (Bead name: CCL4/MIP-1 beta) [3]: 589.2
- MFI (Bead name: CCL4/MIP-1 beta) [4]: 611.0 and 596.5 and 560.0
- Concentration (CCL4/MIP-1 beta) [4]: 15520.6 pg/mL and 15288.8 pg/mL and 14700.8 pg/mL
- conc/live cell (CCL4/MIP-1 beta) [4]: 2425.1 pg/10^5 and 2548.1 pg/10^5 and 2410.0 pg/10^5
- Concentration (CCL4/MIP-1 beta) [5]: 15088.0 pg/mL
- conc/live cell (CCL4/MIP-1 beta) [5]: 2590.9 pg/10^5
- MFI (Bead name: CCL4/MIP-1 beta) [5]: 584.0
- MFI (Bead name: CCL4/MIP-1 beta) [6]: 576.0 and 592.0 and 584.0
- Concentration (CCL4/MIP-1 beta) [6]: 14959.4 pg/mL and 15216.6 pg/mL and 15088.1 pg/mL
- conc/live cell (CCL4/MIP-1 beta) [6]: 2412.8 pg/10^5 and 2926.3 pg/10^5 and 2433.6 pg/10^5
- Concentration (CCL4/MIP-1 beta) [7]: 14794.1 pg/mL
- conc/live cell (CCL4/MIP-1 beta) [7]: 2273.3 pg/10^5
- MFI (Bead name: CCL4/MIP-1 beta) [7]: 565.8
- MFI (Bead name: CCL4/MIP-1 beta) [8]: 594.0 and 556.5 and 547.0
- Concentration (CCL4/MIP-1 beta) [8]: 15248.7 pg/mL and 14644.0 pg/mL and 14489.7 pg/mL
- conc/live cell (CCL4/MIP-1 beta) [8]: 2420.4 pg/10^5 and 2062.5 pg/10^5 and 2337.0 pg/10^5
- Concentration (CCL4/MIP-1 beta) [9]: 15474.9 pg/mL
- conc/live cell (CCL4/MIP-1 beta) [9]: 2351.1 pg/10^5
- MFI (Bead name: CCL4/MIP-1 beta) [9]: 608.3
- MFI (Bead name: CCL4/MIP-1 beta) [10]: 614.0 and 651.0 and 560.0
- Concentration (CCL4/MIP-1 beta) [10]: 15568.4 pg/mL and 16155.4 pg/mL and 14700.8 pg/mL
- conc/live cell (CCL4/MIP-1 beta) [10]: 2594.7 pg/10^5 and 2524.3 pg/10^5 and 1934.3 pg/10^5
- Concentration (CCL4/MIP-1 beta) [11]: 13712.9 pg/mL
- conc/live cell (CCL4/MIP-1 beta) [11]: 2374.0 pg/10^5
- MFI (Bead name: CCL4/MIP-1 beta) [11]: 499.8
- MFI (Bead name: CCL4/MIP-1 beta) [12]: 537.0 and 474.5 and 488.0
- Concentration (CCL4/MIP-1 beta) [12]: 14326.7 pg/mL and 13293.2 pg/mL and 13518.7 pg/mL
- conc/live cell (CCL4/MIP-1 beta) [12]: 2274.1 pg/10^5 and 2144.1 pg/10^5 and 2703.7 pg/10^5
- conc/live cell (CCL4/MIP-1 beta) [13]: 0.0 pg/10^5
- MFI (Bead name: CCL4/MIP-1 beta) [13]: 0.0
- MFI (Bead name: CCL4/MIP-1 beta) [14]: 0.0
- conc/live cell (CCL4/MIP-1 beta) [14]: 0.0 pg/10^5
- conc/live cell (CCL4/MIP-1 beta) [15]: 0.0 pg/10^5
- MFI (Bead name: CCL4/MIP-1 beta) [15]: 0.0
- MFI (Bead name: CCL4/MIP-1 beta) [16]: 0.0
- conc/live cell (CCL4/MIP-1 beta) [16]: 0.0 pg/10^5
- conc/live cell (CCL4/MIP-1 beta) [17]: 0.0 pg/10^5
- MFI (Bead name: CCL4/MIP-1 beta) [17]: −0.8
- MFI (Bead name: CCL4/MIP-1 beta) [18]: −1.0 and −0.5
- conc/live cell (CCL4/MIP-1 beta) [18]: 0.0 pg/10^5
- Concentration (CCL4/MIP-1 beta) [19]: 1948.5 pg/mL
- conc/live cell (CCL4/MIP-1 beta) [19]: 152.2 pg/10^5
- MFI (Bead name: CCL4/MIP-1 beta) [19]: 5.5
- MFI (Bead name: CCL4/MIP-1 beta) [20]: 10.0 and 1.0
- Concentration (CCL4/MIP-1 beta) [20]: 1948.5 pg/mL
- conc/live cell (CCL4/MIP-1 beta) [20]: 304.4 pg/10^5 and 0.0 pg/10^5
- Concentration (CCL4/MIP-1 beta) [21]: 1360.7 pg/mL
- conc/live cell (CCL4/MIP-1 beta) [21]: 207.4 pg/10^5
- MFI (Bead name: CCL4/MIP-1 beta) [21]: 6.5
- MFI (Bead name: CCL4/MIP-1 beta) [22]: 10.0 and 3.0
- Concentration (CCL4/MIP-1 beta) [22]: 1948.5 pg/mL and 772.9 pg/mL
- conc/live cell (CCL4/MIP-1 beta) [22]: 304.4 pg/10^5 and 110.4 pg/10^5
